≈ marks a conversion by molar mass, not a printed value.
What was measured:
BCL-XL/BAK = molecular target: T1, BCL-XL/BAK (Homo sapiens, UniProt Q07817); assay: Screening on inhibitory activity for BCL-XL/BAK binding (Cisbio HTRF kit); conditions: Tag1-BCL-XL / Tag2-BAK binding, 25° C.
T1 construct: purchased Cisbio 63ADK000CB04PEH
Description: A 300 nM Tag1-BCL-XL protein stock solution and a 10 μM Tag2-BAK protein stock solution were diluted to 2 nM and 80 nM respectively with a dilution buffer in a kit (manufacturer: Cisbio, Cat. No.: 63ADK000CB04PEH). 5 μL of Tag1-BCL-XL protein diluent was added to each well, and then different compounds dissolved in DMSO were added to the wells using a nanoliter pipettor, allowing the final compound concentrations to be 2000 nM to 0.488 nM (4-fold gradient for 7 concentrations in total). Blank control wells (without enzyme) and negative control wells (with enzyme, plus vehicle DMSO) were set, and 2 replicate wells were set. Finally, 5 μL of Tag2-BAK protein diluent was added to each well, and the mixture was mixed well by centrifugation and incubated at 25° C. for 15 min. 100× anti-Tag1-Eu^3+ and 100× anti-Tag2-XL665 were both diluted to 1× working concentration with a detection buffer in the kit. Anti-Tag1-Eu^3+ and anti-Tag2-XL665 were mixed well in a 1:1 ratio, and 5 μL of the mixture was added to each well. The resulting mixture was incubated at 25° C. for 2 h or more. The plate was read using a PE Envision multi-functional microplate reader (excitation: 620 nm, emission: 665 nm), and IC50 (shown in Table 1) was calculated by four-parameter fitting.

RS4; 11 cells = assay: Inhibitory effect on proliferation of RS4; 11 cells (CCK-8); type: cell-based; conditions: Homo sapiens, 72 h, CCK-8, 5% serum
Description: RS4; 11 cells in logarithmic growth phase and good cell condition were added to a centrifuge tube and centrifuged at 1500 rpm for 3 min in a low speed centrifuge. The supernatant was discarded, and 5 mL of complete medium (RPMI basic medium+10% FBS) was added using a pipette for cell resuspension. The cells were counted using a cell counter and diluted with complete medium to a cell density of 2×10^5 cells/mL, and then an equivalent amount of RPMI basic medium was added to adjust the serum concentration to 5% and the cell density to 1×10^5 cells/mL for plate seeding. The cells were seeded on a 96-well plate at […] using a multi-channel pipette and cultured in a cell incubator at 37° C., 5% CO2 with saturated humidity. After 24 h of incubation, compounds (500-0.1 nM) were loaded using a nanoliter pipettor, 2 replicate wells were set for each concentration, and cells without compound were used as negative controls. After 72 h, CCK-8 was added at 10 μL/well for incubation for 4 h, then absorbance was measured at 450 nm with an Envision plate reader, and inhibition rate was calculated. […] A dose-response curve was fitted by four-parameter analysis, with the logarithm of compound concentration as abscissa and inhibition rate as ordinate, so that IC50 was calculated (see Table 2).

BCL-2/BAK = molecular target: T2, BCL-2/BAK (Homo sapiens, UniProt P10415); assay: Screening on inhibitory activity for BCL-2/BAK binding (Cisbio HTRF kit); conditions: Tag1-BCL-2 / Tag2-BAK binding, 25° C.
T2 construct: purchased Cisbio 63ADK000CB01PEH
Description: A 500 nM Tag1-BCL-2 protein stock solution and a 20 μM Tag2-BAK protein stock solution were diluted to 5 nM and 120 nM respectively with a dilution buffer in a kit (manufacturer: Cisbio, Cat. No.: 63ADK000CB01PEH). […] of Tag1-BCL-2 protein diluent was added to each well, and then different compounds dissolved in DMSO were added to the wells using a nanoliter pipettor, allowing the final compound concentrations to be 200 nM to 0.0488 nM (4-fold gradient for 7 concentrations in total). Blank control wells (without enzyme) and negative control wells (with enzyme, plus vehicle DMSO) were set, and 2 replicate wells were set. Finally, 5 μL of Tag2-BAK protein diluent was added to each well, and the mixture was mixed well by centrifugation and incubated at 25° C. for 15 min. 100× anti-Tag1-Eu^3+ and 100× anti-Tag2-XL665 were both diluted to 1× working concentration with a detection buffer in the kit. Anti-Tag1-Eu^3+ and anti-Tag2-XL665 were mixed well in a 1:1 ratio, and 5 μL of the mixture was added to each well. The resulting mixture was incubated at 25° C. for 2 h or more. The plate was read using a PE Envision multi-functional microplate reader (excitation: 620 nm, emission: 665 nm), and IC50 (shown in Table 1) was calculated by four-parameter fitting.

[1] = Determination of solubility in water at pH 7.4; type: physicochemical; conditions: aqueous phosphate medium, aqueous buffer, thermodynamic from solid; pH 7.4, 25° C.
Description: Reagents used were 0.2 M NaOH (SinoPharm lot No. 20180223) and 0.2 M phosphate (SinoPharm 20180910, pH 7.4). Instruments/equipment used included a balance (HPLC Dionex U3000, Mettler XPE105DR), pipettes (TIANBO 0.5 mL and 0.1 mL), a thermostatic CNC shaker (ZWY-240, set at 25° C. and 200 rpm).
The example compounds were tested in an aqueous medium at 25° C. An excess of each example compound was weighed out and mixed with an aliquot of the target medium in a clear glass vial. The vial was sealed with a cap and then shaken in the shaker at 25° C. as appropriate. When equilibration was completed, the sample was removed from the shaker and the final pH was measured. The suspension was filtered through a 13 mm needle-type filter and a 0.22 m Syring Filter needle-type filter (hydrophilic PTFE-SA membrane, lot No. HKS13SATQ2B). Each filter was used for only one sample. The determination was carried out after the filtrate had been suitably diluted with the same solvent as used for the stock solution. The concentration of the sample was calculated based on a calibration curve of the compound.

T1 sequence (Q07817 whole entry, species assumed): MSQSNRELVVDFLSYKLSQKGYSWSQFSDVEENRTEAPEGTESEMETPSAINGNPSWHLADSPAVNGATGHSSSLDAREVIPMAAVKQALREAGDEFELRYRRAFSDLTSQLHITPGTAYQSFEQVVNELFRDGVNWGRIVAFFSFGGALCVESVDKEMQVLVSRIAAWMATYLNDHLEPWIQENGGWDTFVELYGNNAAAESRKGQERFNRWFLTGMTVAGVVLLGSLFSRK
T2 sequence (P10415 whole entry, species assumed): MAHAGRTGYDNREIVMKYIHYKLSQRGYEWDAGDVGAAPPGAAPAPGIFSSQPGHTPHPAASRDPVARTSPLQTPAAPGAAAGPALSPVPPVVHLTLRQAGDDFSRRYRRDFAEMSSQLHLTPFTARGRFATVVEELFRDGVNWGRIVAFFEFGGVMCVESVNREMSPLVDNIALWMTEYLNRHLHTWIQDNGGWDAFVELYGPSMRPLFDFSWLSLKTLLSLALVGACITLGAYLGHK

**Q.** For `CC1(C)CCC(CN2CCN(c3ccc(C(=O)NS(=O)(=O)c4ccc(NC[C@H]5COCCO5)c([N+](=O)[O-])c4)c(Oc4cc5ccnc-5n(COP(=O)(O)O)c4)c3)CC2)=C(c2ccc(C(F)(F)F)cc2Cl)C1` [Example 1], which IC50 (BCL-XL/BAK) is on record?
**A.** 328 nM

**Q.** What about the IC50 (RS4; 11 cells) of the same compound?
**A.** 15.9 nM

**Q.** And the IC50 (BCL-2/BAK)?
**A.** 3 nM

**Q.** And the solubility [1]?
**A.** 19.4 mg/mL (≈ 18.5 mM)

**Q.** Which results are given for `Cc1cc(C(F)(F)F)ccc1C1=C(CN2CCN(c3ccc(C(=O)NS(=O)(=O)c4ccc(NC[C@H]5COCCO5)c([N+](=O)[O-])c4)c(Oc4cc5ccnc-5n(COP(=O)(O)O)c4)c3)CC2)CCC(C)(C)C1` [Example 2]?
**A.** IC50 (BCL-XL/BAK): 251 nM; IC50 (RS4; 11 cells): 14.8 nM; IC50 (BCL-2/BAK): 2.9 nM; solubility [1]: 2.23 mg/mL (≈ 2.17 mM)

Source: patent publication US20240287110A1, “PHOSPHATE OF TRIFLUOROMETHYL-SUBSTITUTED SULFONAMIDE COMPOUND” (CHIA TAI TIANQING PHARMACEUTICAL GROUP CO., LTD., priority 2021, published 2024)
